How the values were obtained:
[1] = target: T1, EGFR mutant Del19 (E746-A750) (Homo sapiens, UniProt P00533, DEL746-750); assay: Kinase inhibition assay, EGFR del E746-A750; format: biochemical; settings: read-out: EGFR mutants Del19 (E746-A750);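 also: truncated human EGFR mutant kinase, two-hour preincubation with compound, then one-hour reaction with ATP and ULight-PolyGT peptide, LANCE Europium-antibody phosphorylation readout, IC50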
T1 construct: truncated human JAK3, EGFR mutants such as del E746-A750; purchased Carna Biosciences

H2073 (EGFR wildtype) = assay: Cell viability assay, H2073; format: cell-based; settings: NCI-H2073; cellular potency; 72-hour incubation; ATPLite;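 also: NSCLC cell line whose survival relies on wildtype EGFR, treated with serially diluted compound, cytotoxic effect judged from remaining cell viability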
EGFR mutant L858R/T790M = target: T2, EGFR mutant L858R/T790M (Homo sapiens, UniProt P00533, L858R/T790M); assay: Kinase inhibition assay, EGFR L858R/T790M; format: biochemical; settings: read-out: EGFR mutants L858R/T790M;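 also: truncated human enzyme preincubated two hours with compound, then one hour with one millimolar ATP and ULight-PolyGT peptide, Europium-labeled antibody detection, IC50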
T2 construct: truncated human JAK3, EGFR mutants such as del E746-A750; purchased Carna Biosciences

EGFR mutant L858R = target: T3, EGFR mutant L858R (Homo sapiens, UniProt P00533, L858R); assay: Kinase inhibition assay, EGFR L858R; format: biochemical; settings: read-out: EGFR mutants L858R;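 also: truncated human EGFR L858R kinase with compound preincubation, ULight-PolyGT peptide phosphorylation read by Europium-antibody Lance detection, IC50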
T3 construct: truncated human JAK3, EGFR mutants such as del E746-A750; purchased Carna Biosciences

JAK3 = target: T4, JAK3 (Homo sapiens, UniProt P52333); assay: Kinase inhibition assay, JAK3; settings: biochemical potency;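 also: IC50 against purified truncated human JAK3 preincubated with compound, then reacted with ATP and ULight-Jak1 peptide, phosphorylation read by Europium-labeled antibody LANCE detection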
T4 construct: EGFR and JAK3 (JH1domain-catalytic) kinases, and mutant forms thereof; purchased Carna Biosciences

KDR = target: T5, KDR (Homo sapiens, UniProt P35968); assay: Kinase inhibition assay, KDR; format: biochemical; settings: biochemical potency;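 also: purified full-length human KDR, 30 min preincubation with compound, then 1 h reaction with ATP and Ulight-Jak1 peptide substrate, phosphorylation read by Lance Europium antibody detection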
T5 construct: Purified human, full-length SYK, KDR; purchased Carna Biosciences

[2] = system: PC9 (EGFR del E746-A750 mutant); assay: Cell viability assay, PC9; format: cell-based; settings: for Selectivity over wildtype, Wildtype vs mutant H2073/PC9 (fold): cellular potency ratio; for IC50: cellular potency, 72-hour incubation, ATPLite, read-out: EGFR Mutants PC9;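 as to all read-outs here: NSCLC PC9 cells, whose viability relies on EGFR del E746-A750, exposed to serially diluted compound for 72 h at 37 °C, ATPLite read-out, IC50, H2073 as EGFR wildtype line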
[3] = system: H1975 (EGFR L858R/T790M mutant); assay: Cell viability assay, H1975; format: cell-based; settings: for IC50: Homo sapiens, NCI-H1975, cellular potency, 72-hour incubation, ATPLite, read-out: EGFR Mutants H1975; for Selectivity over wildtype, Wildtype vs mutant H2073/H1975 (fold): cellular potency ratio;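 as to all read-outs here: NSCLC cells whose survival relies on EGFR L858R/T790M, exposed 72 h to serially diluted compound, ATP-based viability readout, with the H2073 line (wildtype EGFR dependent) as wildtype comparator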
SYK = target: T6, SYK (Homo sapiens, UniProt P43405); assay: Kinase inhibition assay, SYK; format: biochemical; settings: biochemical potency;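 also: purified full-length human SYK pre-incubated 30 min with compound, then ULight-TK peptide phosphorylation for 1 h, detected with Europium-labeled antibody in Lance buffer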
T6 construct: Purified human, full-length SYK, KDR; purchased Carna Biosciences

EGFR mutant Del19/T790M = target: T7, EGFR mutant Del19/T790M (Homo sapiens, UniProt P00533, DEL746-750/T790M); assay: Kinase inhibition assay, EGFR del E746-A750/T790M; format: biochemical; settings: read-out: EGFR mutants Del19/T790M
T7 construct: truncated human JAK3, EGFR mutants such as del E746-A750; purchased Carna Biosciences

EGFR mutant T790M = target: T8, EGFR mutant T790M (Homo sapiens, UniProt P00533, T790M); assay: Kinase inhibition assay, EGFR mutant T790M; settings: biochemical potency;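 also: truncated human EGFR mutant enzyme preincubated two hours with compound, then ATP plus ULight-PolyGT peptide for one hour, Europium-labeled antibody LANCE detection, IC50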
T8 construct: truncated human JAK3, EGFR mutants such as del E746-A750; purchased Carna Biosciences
T8 sequence (P00533 669-1210 T790M limits assumed): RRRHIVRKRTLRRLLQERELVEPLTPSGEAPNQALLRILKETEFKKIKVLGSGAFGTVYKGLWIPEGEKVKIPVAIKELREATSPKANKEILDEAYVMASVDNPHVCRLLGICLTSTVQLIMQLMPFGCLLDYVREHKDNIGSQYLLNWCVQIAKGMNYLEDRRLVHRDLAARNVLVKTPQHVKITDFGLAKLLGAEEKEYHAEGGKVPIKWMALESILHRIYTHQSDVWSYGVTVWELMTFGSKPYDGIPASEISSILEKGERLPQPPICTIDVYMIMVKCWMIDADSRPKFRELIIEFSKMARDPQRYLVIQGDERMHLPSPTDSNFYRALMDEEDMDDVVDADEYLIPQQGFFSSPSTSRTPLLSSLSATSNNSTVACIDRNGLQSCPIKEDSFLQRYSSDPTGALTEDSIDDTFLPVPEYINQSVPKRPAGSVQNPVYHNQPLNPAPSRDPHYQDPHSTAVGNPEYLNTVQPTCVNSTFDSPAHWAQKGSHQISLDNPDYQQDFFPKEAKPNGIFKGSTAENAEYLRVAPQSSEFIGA

T5 sequence (P35968 20-1356): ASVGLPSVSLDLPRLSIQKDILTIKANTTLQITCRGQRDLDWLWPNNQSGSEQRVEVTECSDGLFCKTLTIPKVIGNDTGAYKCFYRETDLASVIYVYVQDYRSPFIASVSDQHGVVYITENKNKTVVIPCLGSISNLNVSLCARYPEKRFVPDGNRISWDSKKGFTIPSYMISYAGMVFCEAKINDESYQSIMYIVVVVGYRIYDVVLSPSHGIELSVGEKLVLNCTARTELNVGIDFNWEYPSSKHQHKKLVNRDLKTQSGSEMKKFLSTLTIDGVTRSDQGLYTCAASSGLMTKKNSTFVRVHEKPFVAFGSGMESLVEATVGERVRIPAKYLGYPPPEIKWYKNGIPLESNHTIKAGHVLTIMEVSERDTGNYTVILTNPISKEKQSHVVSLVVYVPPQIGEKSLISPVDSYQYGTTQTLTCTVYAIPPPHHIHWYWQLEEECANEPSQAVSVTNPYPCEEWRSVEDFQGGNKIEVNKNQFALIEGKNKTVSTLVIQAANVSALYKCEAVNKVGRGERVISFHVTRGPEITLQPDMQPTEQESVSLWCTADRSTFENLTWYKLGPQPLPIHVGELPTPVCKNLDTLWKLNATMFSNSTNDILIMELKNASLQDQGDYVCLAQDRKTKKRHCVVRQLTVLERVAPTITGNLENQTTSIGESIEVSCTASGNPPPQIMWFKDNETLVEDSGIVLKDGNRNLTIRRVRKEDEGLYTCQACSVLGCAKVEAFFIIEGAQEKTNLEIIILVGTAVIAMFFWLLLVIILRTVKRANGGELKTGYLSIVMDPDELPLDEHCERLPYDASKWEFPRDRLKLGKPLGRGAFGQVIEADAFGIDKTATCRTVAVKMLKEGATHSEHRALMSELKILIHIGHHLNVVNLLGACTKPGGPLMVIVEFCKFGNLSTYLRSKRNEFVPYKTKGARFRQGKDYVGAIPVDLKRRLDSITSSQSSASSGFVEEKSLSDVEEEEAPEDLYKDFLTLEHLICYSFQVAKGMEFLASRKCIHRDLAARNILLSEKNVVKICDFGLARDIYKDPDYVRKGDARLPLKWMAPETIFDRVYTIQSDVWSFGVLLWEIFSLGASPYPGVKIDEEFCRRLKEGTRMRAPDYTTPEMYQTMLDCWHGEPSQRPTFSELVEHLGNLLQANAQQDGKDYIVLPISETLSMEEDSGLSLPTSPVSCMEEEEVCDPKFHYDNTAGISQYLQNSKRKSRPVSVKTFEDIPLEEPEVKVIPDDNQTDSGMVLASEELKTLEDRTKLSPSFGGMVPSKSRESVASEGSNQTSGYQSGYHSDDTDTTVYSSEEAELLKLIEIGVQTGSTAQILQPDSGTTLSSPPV
T1 sequence (P00533 with tags, fused parts or gaps DEL746-750 limits assumed): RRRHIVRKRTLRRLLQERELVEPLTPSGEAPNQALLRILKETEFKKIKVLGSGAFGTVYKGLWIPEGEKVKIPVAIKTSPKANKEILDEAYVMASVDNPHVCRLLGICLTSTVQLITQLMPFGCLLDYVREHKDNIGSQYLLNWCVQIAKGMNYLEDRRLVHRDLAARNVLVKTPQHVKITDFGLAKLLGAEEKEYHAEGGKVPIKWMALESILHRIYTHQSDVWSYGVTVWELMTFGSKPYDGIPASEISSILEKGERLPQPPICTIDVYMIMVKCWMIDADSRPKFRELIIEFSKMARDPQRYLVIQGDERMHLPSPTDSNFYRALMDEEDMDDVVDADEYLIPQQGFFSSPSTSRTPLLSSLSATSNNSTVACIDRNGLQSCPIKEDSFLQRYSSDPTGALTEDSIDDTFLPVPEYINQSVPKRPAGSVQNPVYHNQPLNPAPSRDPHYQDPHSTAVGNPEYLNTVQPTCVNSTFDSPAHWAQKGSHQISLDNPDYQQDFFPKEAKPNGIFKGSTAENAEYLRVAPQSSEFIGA
T7 sequence (P00533 with tags, fused parts or gaps DEL746-750/T790M limits assumed): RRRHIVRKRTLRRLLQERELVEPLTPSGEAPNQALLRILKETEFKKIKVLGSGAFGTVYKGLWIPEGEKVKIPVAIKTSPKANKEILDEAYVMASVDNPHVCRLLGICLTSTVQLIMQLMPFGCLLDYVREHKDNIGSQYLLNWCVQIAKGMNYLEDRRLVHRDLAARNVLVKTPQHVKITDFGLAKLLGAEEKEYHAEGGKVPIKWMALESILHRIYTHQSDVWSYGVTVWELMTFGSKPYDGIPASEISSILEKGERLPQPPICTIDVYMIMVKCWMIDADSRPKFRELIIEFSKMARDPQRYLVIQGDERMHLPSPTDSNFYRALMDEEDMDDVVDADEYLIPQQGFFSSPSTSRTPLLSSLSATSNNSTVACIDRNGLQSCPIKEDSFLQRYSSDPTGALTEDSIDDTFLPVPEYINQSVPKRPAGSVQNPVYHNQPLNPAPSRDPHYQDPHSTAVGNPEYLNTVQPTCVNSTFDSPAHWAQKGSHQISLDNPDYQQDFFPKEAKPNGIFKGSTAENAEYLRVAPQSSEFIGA
T3 sequence (P00533 669-1210 L858R limits assumed): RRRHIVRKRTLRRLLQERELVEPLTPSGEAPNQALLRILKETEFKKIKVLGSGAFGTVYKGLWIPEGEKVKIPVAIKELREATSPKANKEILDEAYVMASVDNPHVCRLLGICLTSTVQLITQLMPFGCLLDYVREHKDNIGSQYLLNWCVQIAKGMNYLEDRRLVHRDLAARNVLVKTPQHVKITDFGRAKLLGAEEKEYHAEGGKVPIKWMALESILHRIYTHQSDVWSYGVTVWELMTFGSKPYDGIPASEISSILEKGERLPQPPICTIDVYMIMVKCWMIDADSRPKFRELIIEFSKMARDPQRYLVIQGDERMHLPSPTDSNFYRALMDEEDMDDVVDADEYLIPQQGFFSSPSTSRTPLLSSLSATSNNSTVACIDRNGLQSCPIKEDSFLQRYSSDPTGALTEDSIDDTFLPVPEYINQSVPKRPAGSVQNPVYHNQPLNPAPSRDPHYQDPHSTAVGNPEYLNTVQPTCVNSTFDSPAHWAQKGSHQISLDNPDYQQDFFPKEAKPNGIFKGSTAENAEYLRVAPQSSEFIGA
T4 sequence (P52333 822-1111 limits assumed): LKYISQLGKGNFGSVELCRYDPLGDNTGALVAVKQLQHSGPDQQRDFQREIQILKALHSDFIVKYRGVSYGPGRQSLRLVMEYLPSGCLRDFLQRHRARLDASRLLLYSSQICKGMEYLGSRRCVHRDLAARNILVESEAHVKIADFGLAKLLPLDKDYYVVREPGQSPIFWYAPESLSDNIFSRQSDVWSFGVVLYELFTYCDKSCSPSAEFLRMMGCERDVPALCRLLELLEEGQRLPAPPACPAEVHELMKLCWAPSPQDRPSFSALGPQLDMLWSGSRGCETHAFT
T2 sequence (P00533 669-1210 T790M/L858R limits assumed): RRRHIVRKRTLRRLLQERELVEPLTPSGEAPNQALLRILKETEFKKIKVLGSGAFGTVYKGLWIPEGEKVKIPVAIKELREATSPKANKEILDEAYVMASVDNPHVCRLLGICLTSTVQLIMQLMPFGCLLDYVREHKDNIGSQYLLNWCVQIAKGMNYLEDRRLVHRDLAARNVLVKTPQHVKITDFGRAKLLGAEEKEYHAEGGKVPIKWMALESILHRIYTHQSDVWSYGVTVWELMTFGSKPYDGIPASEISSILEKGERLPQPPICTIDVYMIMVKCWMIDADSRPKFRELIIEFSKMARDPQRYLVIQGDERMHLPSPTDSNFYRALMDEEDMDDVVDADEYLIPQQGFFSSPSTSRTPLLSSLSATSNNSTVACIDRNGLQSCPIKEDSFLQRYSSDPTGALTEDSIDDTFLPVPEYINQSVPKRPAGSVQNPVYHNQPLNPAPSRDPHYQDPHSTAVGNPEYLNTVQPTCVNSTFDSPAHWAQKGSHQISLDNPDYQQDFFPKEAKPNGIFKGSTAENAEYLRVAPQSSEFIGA

SMILES | IC50 [1] | IC50 (H2073 (EGFR wildtype)) | IC50 (EGFR mutant L858R/T790M) | IC50 (EGFR mutant L858R) | IC50 (JAK3) | IC50 (KDR) | Selectivity over wildtype, Wildtype vs mutant H2073/PC9 (fold) [2] | IC50 [2] | IC50 [3] | Selectivity over wildtype, Wildtype vs mutant H2073/H1975 (fold) [3] | IC50 (SYK) | IC50 (EGFR mutant Del19/T790M) | IC50 (EGFR mutant T790M)
C=CC(=O)Nc1cc(Nc2ncc(C)c(-n3cc(CN4CCC4)c(C)n3)n2)c(OC)cc1N1CCOCC1 [Compound 76, N-(5-(4-(4-(azetidin-1-ylmethyl)-3-methyl-1H-pyrazol-1-yl)-5-methylpyrimidin-2-ylamino)-4-methoxy-2-morpholinophenyl)acrylamide] | < 20 nM | > 1000 nM | < 20 nM | < 20 nM | < 20 nM | > 1000 nM | 101-200 fold | 20 to 200 nM | 20 to 200 nM | 101-200 fold | 201 to 1000 nM | < 20 nM | < 20 nM
C=CC(=O)Nc1cc(Nc2ncc(Cl)c(-n3cc(CN4CCC4)c(C)n3)n2)c(OC)cc1N1CCOCC1 [Compound 50, N-(5-(4-(4-(azetidin-1-ylmethyl)-3-methyl-1H-pyrazol-1-yl)-5-chloropyrimidin-2-ylamino)-4-methoxy-2-morpholinophenyl)acrylamide] | < 20 nM | > 1000 nM | < 20 nM | 20 to 200 nM | < 20 nM | > 1000 nM | 101-200 fold | 20 to 200 nM | 20 to 200 nM | >200 fold | > 1000 nM | < 20 nM | < 20 nM
C=CC(=O)Nc1cc(Nc2ncc(C)c(-n3cc(CN4C[C@@H](O)[C@@H](O)C4)c(C)n3)n2)c(OC)cc1N1CCOCC1 [Compound 25, N-(5-(4-(4-(((3R,4S)-3,4-dihydroxypyrrolidin-1-yl)methyl)-3-methyl-1H-pyrazol-1-yl)-5-methylpyrimidin-2-ylamino)-4-methoxy-2-morpholinophenyl)acrylamide] | < 20 nM | > 1000 nM | < 20 nM | < 20 nM | < 20 nM | > 1000 nM | >200 fold | < 20 nM | < 20 nM | 101-200 fold | 201 to 1000 nM | < 20 nM | < 20 nM
C=CC(=O)Nc1cc(Nc2ncc(C)c(-n3cc(CN(C)C)c(C(C)C)n3)n2)c(OC)cc1N1CCOCC1 [Compound 124, N-(5-(4-(4-((dimethylamino)methyl)-3-isopropyl-1H-pyrazol-1-yl)-5-methylpyrimidin-2-ylamino)-4-methoxy-2-morpholinophenyl)acrylamide] | < 20 nM | > 1000 nM | < 20 nM | < 20 nM | < 20 nM | > 1000 nM | >200 fold | < 20 nM | < 20 nM | >200 fold | 20 to 200 nM | < 20 nM | < 20 nM
C=CC(=O)Nc1cc(Nc2ncc(C)c(-n3cc(CN4CCC4)cn3)n2)c(OC)cc1N1CCOCC1 [Compound 32, N-(5-(4-(4-(azetidin-1-ylmethyl)-1H-pyrazol-1-yl)-5-methylpyrimidin-2-ylamino)-4-methoxy-2-morpholinophenyl)acrylamide] | < 20 nM | > 1000 nM | < 20 nM | < 20 nM | < 20 nM | > 1000 nM | 20-100 fold | 201 to 1000 nM | 20 to 200 nM | 20-100 fold | 201 to 1000 nM | < 20 nM | < 20 nM
C=CC(=O)Nc1cc(Nc2ncc(C)c(-n3cc(CN4CC(O)C4)c(C)n3)n2)c(OC)cc1N1CCN(C)CC1 [Compound 29, N-(5-(4-(4-((3-hydroxyazetidin-1-yl)methyl)-3-methyl-1H-pyrazol-1-yl)-5-methylpyrimidin-2-ylamino)-4-methoxy-2-(4-methylpiperazin-1-yl)phenyl)acrylamide] | < 20 nM | > 1000 nM | < 20 nM | < 20 nM | < 20 nM | > 1000 nM | <20 fold | 20 to 200 nM | 20 to 200 nM | <20 fold | 20 to 200 nM | < 20 nM | < 20 nM
C=CC(=O)Nc1cc(Nc2ncc(C)c(-n3cc(C)c(CN4CC(O)C4)c3)n2)c(OC)cc1N1CCOCC1 [Compound 48, N-(5-(4-(3-((3-hydroxyazetidin-1-yl)methyl)-4-methyl-1H-pyrrol-1-yl)-5-methylpyrimidin-2-ylamino)-4-methoxy-2-morpholinophenyl)acrylamide] | < 20 nM | > 1000 nM | < 20 nM | 20 to 200 nM | < 20 nM | > 1000 nM | <20 fold | 201 to 1000 nM | 201 to 1000 nM | <20 fold | 201 to 1000 nM | < 20 nM | < 20 nM
C=CC(=O)Nc1cc(Nc2ncc(F)c(-n3cc(CN4CCC4)c(C)n3)n2)c(OC)cc1N1CCOCC1 [Compound 62, N-(5-(4-(4-(azetidin-1-ylmethyl)-3-methyl-1H-pyrazol-1-yl)-5-fluoropyrimidin-2-ylamino)-4-methoxy-2-morpholinophenyl)acrylamide] | < 20 nM | > 1000 nM | < 20 nM | < 20 nM | < 20 nM | > 1000 nM | >200 fold | 20 to 200 nM | 20 to 200 nM | >200 fold | > 1000 nM | < 20 nM | < 20 nM
C=CC(=O)Nc1cc(Nc2nccc(-n3cc(CN(C)C)c(C)n3)n2)c(OC)cc1N(C)C [Compound 71, N-(2-(dimethylamino)-5-(4-(4-((dimethylamino)methyl)-3-methyl-1H-pyrazol-1-yl)pyrimidin-2-ylamino)-4-methoxyphenyl)acrylamide] | < 20 nM | > 1000 nM | < 20 nM | < 20 nM | < 20 nM | > 1000 nM | >200 fold | < 20 nM | < 20 nM | >200 fold | 201 to 1000 nM | < 20 nM | < 20 nM
C=CC(=O)Nc1cc(Nc2ncc(C)c(-n3cc(CN4CCC4)cn3)n2)c(OC)cc1N1CCN(C)CC1 [Compound 36, N-(5-(4-(4-(azetidin-1-ylmethyl)-1H-pyrazol-1-yl)-5-methylpyrimidin-2-ylamino)-4-methoxy-2-(4-methylpiperazin-1-yl)phenyl)acrylamide] | < 20 nM | > 1000 nM | < 20 nM | < 20 nM | < 20 nM | > 1000 nM | 20-100 fold | 20 to 200 nM | 20 to 200 nM | 20-100 fold | > 1000 nM | < 20 nM | < 20 nM
